Test results: patent US20200325177A1, “METHODS OF MAKING STREPTOGRAMIN COMPOSITIONS AND THE USE THEREOF” (THE REGENTS OF THE UNIVERSITY OF CALIFORNIA, priority 2017, published 2020)
In brackets after ≈: the same amount, converted by molar mass. Like-named read-outs stand apart in the source and are kept apart here.

Assays:
Type in all cases: cell-based
S. pneumoniae = experiment: MIC, Gram-positive bacteria: S. pneumoniae; details: Streptococcus pneumoniae, column 10, read-out: Minimal Inhibitory Concentration (MIC) S. pneumoniae
[1] = system: S. aureus Vat A streptogramin; experiment: MIC, Gram-positive bacteria: S. aureus Vat A streptogramin; details: Staphylococcus aureus; Gram-positive; column 5; read-out: Minimal Inhibitory Concentration (MIC) S. aureus Vat A streptogramin
E. faecalis = experiment: MIC, Gram-positive bacteria: E. faecalis; details: Enterococcus faecalis, column 1, read-out: Minimal Inhibitory Concentration (MIC) E. faecalis
[2] = system: S. aureus Linezolid-resistant; cfr; experiment: MIC, Gram-positive bacteria: S. aureus Linezolid-resistant; cfr; details: Staphylococcus aureus, column 9, read-out: Minimal Inhibitory Concentration (MIC) S. aureus Linezolid-resistant
Gram-Negative Organisms = experiment: microbe, parasite or virus in culture
E. faecium VRE; vanA = experiment: MIC, Gram-positive bacteria: E. faecium VRE; vanA; details: Enterococcus faecium, column 3, read-out: Minimal Inhibitory Concentration (MIC) E. faecium VRE
H. influenzae ATCC 49247 = experiment: MIC, Gram-negative bacteria: H. influenzae ATCC 49247; details: Haemophilus influenzae, ATCC49247, read-out: Minimal Inhibitory Concentration (MIC) H. influenzae ATCC 49247
[3] = system: P. aeruginosa MDR clinical isolate; experiment: MIC, Gram-negative bacteria: P. aeruginosa MDR clinical isolate; details: Pseudomonas aeruginosa, read-out: Minimal Inhibitory Concentration (MIC) P. aeruginosa MDR clinical isolate
[4] = system: K. pneumoniae multidrug-resistant; experiment: MIC, Gram-negative bacteria: K. pneumoniae multidrug-resistant; details: Klebsiella pneumoniae, read-out: Minimal Inhibitory Concentration (MIC) K. pneumoniae multidrug-resistant
P. aeruginosa ATCC 27853 = experiment: MIC, Gram-negative bacteria: P. aeruginosa ATCC 27853; details: Pseudomonas aeruginosa, ATCC27853, read-out: Minimal Inhibitory Concentration (MIC) P. aeruginosa ATCC 27853
E. faecium ATCC 35667 = experiment: MIC, Gram-positive bacteria: E. faecium ATCC 35667; details: Enterococcus faecium, ATCC35667, column 2, read-out: Minimal Inhibitory Concentration (MIC) E. faecium ATCC 35667
S. aureus = experiment: MIC, Gram-positive bacteria: S. aureus (strains not named); details: Staphylococcus aureus, read-out: Minimal Inhibitory Concentration (MIC) S. aureus
[5] = Acinetobacter baumannii, ATCC19606, read-out: Minimal Inhibitory Concentration (MIC), A. baumannii ATCC 19606
[6] = Escherichia coli, ATCC25922, read-out: Minimal Inhibitory Concentration (MIC), E. coli ATCC 25922
[7] = Escherichia coli, read-out: Minimal Inhibitory Concentration (MIC), E. coli BAS2006, OMP C, OMP F
[8] = Escherichia coli, read-out: Minimal Inhibitory Concentration (MIC), E. coli olC efflux defective
[9] = Escherichia coli, read-out: Minimal Inhibitory Concentration (MIC), E. coli permeability mutant BAS1314, IMP4213ZAB::TN10
[10] = Escherichia coli, read-out: Minimal Inhibitory Concentration (MIC), E. coli ΔompC768, KanR insert
[11] = Klebsiella pneumoniae, ATCC43816, read-out: Minimal Inhibitory Concentration (MIC), K. pneumoniae ATCC 43816
[12] = first unnamed S. aureus column (c4)
[13] = fourth unnamed S. aureus column (c8)
[14] = second unnamed S. aureus column (c6)
[15] = third unnamed S. aureus column (c7)

| SMILES | MIC (S. pneumoniae) | MIC [1] | MIC (E. faecalis) | MIC [2] | MIC (Gram-Negative Organisms; [5]) | MIC (Gram-Negative Organisms; [6]) | MIC (Gram-Negative Organisms; [7]) | MIC (Gram-Negative Organisms; [8]) | MIC (Gram-Negative Organisms; [9]) | MIC (Gram-Negative Organisms; [11]) | MIC (E. faecium VRE; vanA) | MIC (H. influenzae ATCC 49247) | MIC [3] | MIC [4] | MIC (P. aeruginosa ATCC 27853) | MIC (E. faecium ATCC 35667) | MIC (S. aureus; [12]) | MIC (S. aureus; [13]) | MIC (S. aureus; [14]) | MIC (S. aureus; [15]) | further results |
| --- | --- | --- | --- | --- | --- | --- | --- | --- | --- | --- | --- | --- | --- | --- | --- | --- | --- | --- | --- | --- | --- |
| CC1=C\[C@@H](O)CC(=O)Cc2nc(co2)C(=O)N2CCC[C@@H]2C(=O)O[C@H]([C@H](C)COC(=O)Nc2csc(C)n2)[C@H](C)/C=C/C(=O)NC\C=C\1 [SA0110214] | 32 µg/mL (≈ 46.8 µM) | > 64 µg/mL | > 64 µg/mL | > 64 µg/mL | > 64 µg/mL | > 64 µg/mL | 64 µg/mL (≈ 93.6 µM) | 8 µg/mL (≈ 11.7 µM) | 8 µg/mL (≈ 11.7 µM) | > 64 µg/mL | 64 µg/mL (≈ 93.6 µM) | 16 µg/mL (≈ 23.4 µM) | > 64 µg/mL | > 64 µg/mL | > 64 µg/mL | 32 µg/mL (≈ 46.8 µM) | 64 µg/mL (≈ 93.6 µM) | 64 µg/mL (≈ 93.6 µM) | 64 µg/mL (≈ 93.6 µM) | > 64 µg/mL | MIC (Gram-Negative Organisms; [10]): > 64 µg/mL |
| CC1=C\[C@@H](O)CC(=O)Cc2nc(co2)C(=O)N2CCC[C@@H]2C(=O)O[C@H]([C@@H](C)COC(=O)Nc2ccc(C(F)(F)F)cc2)[C@H](C)/C=C/C(=O)NC\C=C\1 [SA0110044] | > 64 µg/mL | > 64 µg/mL | > 64 µg/mL | > 64 µg/mL | > 64 µg/mL | > 64 µg/mL | > 64 µg/mL | 16 µg/mL (≈ 21.9 µM) | 16 µg/mL (≈ 21.9 µM) | > 64 µg/mL | > 64 µg/mL | > 64 µg/mL | > 64 µg/mL | > 64 µg/mL | > 64 µg/mL | 16 µg/mL (≈ 21.9 µM) | > 64 µg/mL | 32 µg/mL (≈ 43.8 µM) | > 64 µg/mL | > 64 µg/mL |  |
| CC1=C\[C@@H](O)CC(=O)Cc2nc(co2)C(=O)N2CCC[C@@H]2C(=O)O[C@H]([C@@H](C)CN2CCC(N(C)C)CC2)[C@H](C)/C=C/C(=O)NC\C=C\1 [SA0110252] | > 64 µg/mL | > 64 µg/mL | > 64 µg/mL | > 64 µg/mL | > 64 µg/mL | > 64 µg/mL | > 64 µg/mL | > 64 µg/mL | > 64 µg/mL | > 64 µg/mL | > 64 µg/mL | > 64 µg/mL | > 64 µg/mL | > 64 µg/mL | > 64 µg/mL | > 64 µg/mL | > 64 µg/mL | > 64 µg/mL | > 64 µg/mL | > 64 µg/mL | MIC (Gram-Negative Organisms; [10]): > 64 µg/mL |
| CC1=C\[C@@H](O)CC(=O)Cc2nc(co2)C(=O)N2CCC[C@@H]2C(=O)O[C@H](C(C)(C)C)[C@H](C)/C=C/C(=O)NC\C=C\1 [SA0306004] | 64 µg/mL (≈ 118 µM) | > 64 µg/mL | > 64 µg/mL | > 64 µg/mL | > 64 µg/mL | > 64 µg/mL | 4 µg/mL (≈ 7.38 µM) | 4 µg/mL (≈ 7.38 µM) | 4 µg/mL (≈ 7.38 µM) | > 64 µg/mL | > 64 µg/mL | > 64 µg/mL | > 64 µg/mL | > 64 µg/mL | > 64 µg/mL | 32 µg/mL (≈ 59.1 µM) | 32 µg/mL (≈ 59.1 µM) | 32 µg/mL (≈ 59.1 µM) | 64 µg/mL (≈ 118 µM) | 64 µg/mL (≈ 118 µM) |  |
| CC1=C\[C@@H](O)CC(=O)Cc2nc(co2)C(=O)N2CCC[C@@H]2C(=O)O[C@H]([C@@H](C)COC(=O)Nc2ccc3ccccc3n2)[C@H](C)/C=C/C(=O)NC\C=C\1 [SA0110117] | 4 µg/mL (≈ 5.6 µM) | > 64 µg/mL | > 64 µg/mL | > 64 µg/mL | > 64 µg/mL | > 64 µg/mL | 8 µg/mL (≈ 11.2 µM) | 2 µg/mL (≈ 2.8 µM) | 4 µg/mL (≈ 5.6 µM) | > 64 µg/mL | 32 µg/mL (≈ 44.8 µM) | > 64 µg/mL | > 64 µg/mL | > 64 µg/mL | > 64 µg/mL | 16 µg/mL (≈ 22.4 µM) | 16 µg/mL (≈ 22.4 µM) | 16 µg/mL (≈ 22.4 µM) | 16 µg/mL (≈ 22.4 µM) | 32 µg/mL (≈ 44.8 µM) |  |
| CC1=C\[C@@H](O)CC(=O)Cc2nc(co2)C(=O)N2CCC[C@@H]2C(=O)O[C@H]([C@@H](C)COC(=O)Nc2ccc(C)cc2)[C@H](C)/C=C/C(=O)NC\C=C\1 [SA0110037] | 16 µg/mL (≈ 23.6 µM) | > 64 µg/mL | > 64 µg/mL | > 64 µg/mL | > 64 µg/mL | > 64 µg/mL | 16 µg/mL (≈ 23.6 µM) | 4 µg/mL (≈ 5.91 µM) | 8 µg/mL (≈ 11.8 µM) | > 64 µg/mL | 64 µg/mL (≈ 94.6 µM) | > 64 µg/mL | > 64 µg/mL | > 64 µg/mL | > 64 µg/mL | 16 µg/mL (≈ 23.6 µM) | 32 µg/mL (≈ 47.3 µM) | 16 µg/mL (≈ 23.6 µM) | 32 µg/mL (≈ 47.3 µM) | 64 µg/mL (≈ 94.6 µM) |  |
| CC1=C\[C@@H](O)C[C@@H](F)Cc2nc(co2)C(=O)N2CCC[C@@H]2C(=O)O[C@H](C(C)C)[C@H](C)/C=C/C(=O)NC\C=C\1 [flopristin, reference compound] | 2 µg/mL (≈ 3.76 µM) | 8 µg/mL (≈ 15 µM) | > 64 µg/mL | > 64 µg/mL | > 64 µg/mL | 32 µg/mL (≈ 60.2 µM) | 0.25 µg/mL (≈ 0.47 µM) | 1 µg/mL (≈ 1.88 µM) | < 0.06 µg/mL | > 64 µg/mL | 2 µg/mL (≈ 3.76 µM) | 0.25 µg/mL (≈ 0.47 µM) | > 64 µg/mL | > 64 µg/mL | > 64 µg/mL | 0.5 µg/mL (≈ 0.941 µM) | 0.5 µg/mL (≈ 0.941 µM) | 0.5 µg/mL (≈ 0.941 µM) | 0.5 µg/mL (≈ 0.941 µM) | 1 µg/mL (≈ 1.88 µM) | MIC (Gram-Negative Organisms; [10]): 64 µg/mL (≈ 120 µM) |
| CC1=C\[C@@H](O)CC(=O)Cc2nc(co2)C(=O)N2CCC[C@@H]2C(=O)O[C@H]([C@@H](C)COC(=O)Nc2ccccn2)[C@H](C)/C=C/C(=O)NC\C=C\1 [SA0110120] | 16 µg/mL (≈ 24.1 µM) | > 64 µg/mL | > 64 µg/mL | > 64 µg/mL | > 64 µg/mL | > 64 µg/mL | 32 µg/mL (≈ 48.2 µM) | 4 µg/mL (≈ 6.03 µM) | 8 µg/mL (≈ 12.1 µM) | > 64 µg/mL | 64 µg/mL (≈ 96.4 µM) | 32 µg/mL (≈ 48.2 µM) | > 64 µg/mL | > 64 µg/mL | > 64 µg/mL | 32 µg/mL (≈ 48.2 µM) | 64 µg/mL (≈ 96.4 µM) | 32 µg/mL (≈ 48.2 µM) | 64 µg/mL (≈ 96.4 µM) | > 64 µg/mL |  |
